Measured values published in patent US7053188B2, “Monoclonal antibodies specific for neoplasia-specific NADH:disulfide reductase” (Purdue Research Foundation, priority 2002, dated 2006).

How the values were obtained:
tTIP [1] = assay: Direct assay of tTIP activity of HeLa plasma membranes with DTNA substrate; assay type: biochemical, human; settings: no antibody
[2] = tested on: NADH oxidase of HeLa plasma membranes; settings: background statement; cited from earlier work
tNOX [3] = assay: Immunoprecipitation of tNOX with MAB 12.1, supernatant activity assayed; assay type: biochemical, human; settings: Preimmune
Method: Spectrophotometric tNOX Assay. NADH oxidase activity was determined as the disappearance of NADH measured at 340 nm with 430 nm as reference using an SLM Aminco (Lake Forest, Calif.) DW-2000 spectrophotometer in the dual wavelength mode of operation or a Hitachi (Tokyo, Japan) U3210 spectrophotometer at 340 nm with continuous recording over 5 or 10 min intervals once steady-state rates were obtained. The reaction mixture contained 50 mM Tris-Mes buffer (pH 7.0), 2 mM KCN to inhibit any potential mitochondrial oxidase activity, and 150 μM NADH in a total volume of 2.5 ml. Assay was at 37° C. with constant stirring. With purified fractions, 1 μM reduced glutathione was added to reduce the protein in the presence of substrate and human serum albumin, 0.1 mg/ml, as a protein source of thiols. After 10 min, 0.03% hydrogenperoxide was added (or oxidized glutathione) to reoxidize the protein under renaturing conditions and in the presence of substrate to start the reaction. A millimolar extinction coefficient of 6.22 was used to determine NADH disappearance. To determine capsaicin inhibition, capsaicin in DMSO was added to a final concentration of 1 μM (0.1% DMSO) and the rate of NADH oxidation determined over 10 min. Capsaicin at a final concentration of 100 μM (0.2% DMSO) was then added and the assay was continued for an additional 10 min. Immunoprecipitation. […]

tNOX [4] = assay: NADH oxidase (NOX) activity of pooled sera of cancer patients; assay type: biochemical, human; settings: no MAB
Method: (§1) Pooled sera. Pooled sera were collected from the patient population of the Michiana Hematology-Oncology Clinic, South Bend, Ind. and from the patient population of St. Elizabeth Hospital of Lafayette, Ind. Only cancer patients with active disease (Stage III or Stage IV) were identified at the time of collections. Sera were frozen after collection and stored frozen at −20° C. Prior to assay, samples were thawed and maintained at 4° C. between thawing and assay.
Spectrophotometric tNOX Assay. NADH oxidase activity was determined as the disappearance of NADH measured at 340 nm with 430 nm as reference using an SLM Aminco (Lake Forest, Calif.) DW-2000 spectrophotometer in the dual wavelength mode of operation or a Hitachi (Tokyo, Japan) U3210 spectrophotometer at 340 nm with continuous recording over 5 or 10 min intervals once steady-state rates were obtained. […] To determine capsaicin inhibition, capsaicin in DMSO was added to a final concentration of 1 μM (0.1% DMSO) and the rate of NADH oxidation determined over 10 min. […]
(§2) NADH oxidase activity can also be measured using an Hitachi (Tokyo, Japan) U3210 spectrophotometer over 5 min intervals at 37° C. The activity was determined as the disappearance of NADH measured at 340 nm. […]

[5] = tested on: NADH oxidase of HeLa plasma membranes; assay: NADH oxidase activity of HeLa S plasma membranes; assay type: biochemical, human; settings: 37° C.
Method: (§3) Spectrophotometric tNOX Assay. NADH oxidase activity was determined as the disappearance of NADH measured at 340 nm with 430 nm as reference using an SLM Aminco (Lake Forest, Calif.) DW-2000 spectrophotometer in the dual wavelength mode of operation or a Hitachi (Tokyo, Japan) U3210 spectrophotometer at 340 nm with continuous recording over 5 or 10 min intervals once steady-state rates were obtained. The reaction mixture contained 50 mM Tris-Mes buffer (pH 7.0), 2 mM KCN to inhibit any potential mitochondrial oxidase activity, and 150 μM NADH in a total volume of 2.5 ml. Assay was at 37° C. with constant stirring. With purified fractions, 1 μM reduced glutathione was added to reduce the protein in the presence of substrate and human serum albumin, 0.1 mg/ml, as a protein source of thiols. After 10 min, 0.03% hydrogenperoxide was added (or oxidized glutathione) to reoxidize the protein under renaturing conditions and in the presence of substrate to start the reaction. A millimolar extinction coefficient of 6.22 was used to determine NADH disappearance. To determine capsaicin inhibition, capsaicin in DMSO was added to a final concentration of 1 μM (0.1% DMSO) and the rate of NADH oxidation determined over 10 min. Capsaicin at a final concentration of 100 μM (0.2% DMSO) was then added and the assay was continued for an additional 10 min.

tTIP [6] = assay: tTIP activity of sera of cancer patients, dithio-dipyridyl substrate; assay type: biochemical, human; settings: Breast CA sera, without MAB 12.1
Excerpt: An alternative assay procedure is the use of a dithio-dipyridyl substrate as described in Morré et al. (1999) Mol. Cell. Biochem. 207:7-13.

[7] = tested on: NADH oxidase of normal sera; assay: NADH oxidase (NOX) activity of pooled sera of normal volunteers; assay type: biochemical, human
Method: as §1, §3, §2

[8] = cells incubated in 0.1 M sodium acetate, pH 5, 2 h
[9] = cells incubated in PBS, pH 7, 2 h

Row | Km (tTIP [1]) | SMILES | VMAX (tTIP [1]; estimated) | ability of HeLa plasma membrane vesicles to oxidize NADH (in words) [2] | Supernatant activity, 1 μM capsaicin (tNOX [3]; 1 μM capsaicin) | Supernatant activity, 100 μM capsaicin (tNOX [3]; 100 μM capsaicin) | NOX activity of sera, +1 μM Cap (tNOX [4]; 1 μM capsaicin) | NOX activity of sera, + μM Cap (tNOX [4]; capsaicin (concentration not given)) | NADH oxidase activity, 1 μM capsaicin [5, 8] | NADH oxidase activity, 100 μM capsaicin [5, 8] | NADH oxidase activity, 1 μM capsaicin [5, 9] | NADH oxidase activity, 100 μM capsaicin [5, 9] | Capsaicin inhibition (tTIP [6]) | NADH oxidation by pooled sera from normal patients (in words) ([7]; capsaicin 1 to 100 μM) | NOX activity of sera, +1 μM Cap ([7]; normal sera, no MAB, 1 μM capsaicin) | NOX activity of sera, + μM Cap ([7]; normal sera, no MAB, capsaicin (concentration not given))
1 | 1500 µM | O=C(O)c1ccc(SSc2ccc(C(=O)O)cn2)nc1 [DTNA, 6,6′-dithionicotinic acid] | 1.5 nmoles/min/mg protein |  |  |  |  |  |  |  |  |  |  |  |  | 
2 |  | Cc1ccc(S(=O)(=O)NC(=O)Nc2ccc(Cl)cc2)cc1 [LY181984] |  | partially inhibited |  |  |  |  |  |  |  |  |  |  |  | 
3 |  | COc1cc(CNC(=O)CCCC/C=C/C(C)C)ccc1O [capsaicin, 8-methyl-N-vanillyl-6-noneamide] |  | partially inhibited | 0.6 ± 0.4 nmoles/min/100 μl serum | 0.5 nmoles/min/100 μl serum | 1.0 ± 0.13 | 1.0 ± 0.17 | 0.2 ± 0.01 nmoles/min/mg plasma membrane protein | 0.15 ± 0.02 nmoles/min/mg plasma membrane protein | 0.2 ± 0.02 nmoles/min/mg plasma membrane protein | 0.2 ± 0.02 nmoles/min/mg plasma membrane protein | −0.6 | not inhibited | 0.7 ± 0.14 | 0.7 ± 0.16
